# System: HepG2 cells
# Assay: In vitro transfection of HepG2 cells, normalized luciferase activity
# Assay type: cell-based
# Details: 48 hours
# Procedure: FIGS. 4A and 4B are graphs showing normalized luciferase activity in HepG2 cells 48 hours after in vitro transfection. Lipid nanoparticles were formed with RALA-NLS polypeptides and 250 ng or 500 ng C3-fLuc1157 DNA at a molar ratio of 700, 1400, 2100, or 2800. […]
# FIGS. 4A and 4B are graphs showing normalized luciferase activity in HepG2 cells 48 hours after in vitro transfection. Lipid nanoparticles were formed with RALA-NLS polypeptides and 250 ng or 500 ng C^3-fLuc1157 DNA at a molar ratio of 700, 1400, 2100, or 2800.
sequence,measurement,setting,value
WEARLARALARALARHLARALARALRACEAPKKKRKV [RALA-NLS],transfection efficiency in slightly cationic LNPs (20% DOTAP),FIG. 4B (20% DOTAP) versus FIG. 4A (DOPE),more pronounced
same,transfection with higher amounts of DNA (500 ng) as compared to lower amounts (250 ng),FIGS. 4A and 4B,more efficient transfection
same,transfection improvement compared to LNP without polypeptide,LNP with 700× polypeptide (molar ratio to C^3-fLuc1157 DNA),~20 fold
same,transfection improvement compared to LNP without polypeptide,LNP with 1400× polypeptide (molar ratio to C^3-fLuc1157 DNA),~35 fold
same,transfection improvement compared to LNP without polypeptide,LNP with 2100× polypeptide (molar ratio to C^3-fLuc1157 DNA),~50 fold
same,transfection improvement compared to LNP without polypeptide,LNP with 2800× polypeptide (molar ratio to C^3-fLuc1157 DNA),~65 fold

# From US20250325699A1, “POLYPEPTIDES AND METHODS OF USE” (Aldevron, LLC, priority 2022, published 2025)
